Data taken from ChEMBL document CHEMBL5385844, “Discovery of novel imidazole chemotypes as isoform-selective JNK3 inhibitors for the treatment of Alzheimer's disease” (Eur J Med Chem, 2023).

What was measured:
[1] = molecular target: Mitogen-activated protein kinase 10 (Rattus norvegicus) (UniProt P49187); test: Inhibition of JNK3 in Amyloid beta (1 to 42)-induced c-Jun phosphorylation in primary rat cortex neuron assessed as decrease in c-Jun phosphorylation incubated for 24 hrs by Western blot analysis; format: cell-based; settings: Primary cortical neuron, dose 10-20 µM
[2] = Apparent permeability across basolateral to apical side in human Caco-2 cells at 10 uM incubated for 1 hr by LC-MS/MS analysis; format: ADME, cell-based
[3] = Apparent permeability across apical to basolateral side in human Caco-2 cells at 10 uM incubated for 1 hr by LC-MS/MS analysis; format: ADME, cell-based
[4] = system: Mus musculus; test: Anti-alzheimer activity against homozygous 3 x Tg mouse model assessed as time spent in platform quadrant at 30 mg/kg, po administered daily for 2 months and measured after 27 days of treatment by Morris water maze test (reference value: 15.68 +/- 1.65 sec); format: functional; settings: 1460 h
[5] = Toxicity in APP/PS1 mouse assessed as abnormal symptoms at 30 mg/kg, po treated 3 times/week for 1 month; format: organism-based; settings: in vivo, 730 h, time 1 months
[6] = system: Mus musculus; test: Anti-alzheimer activity against APP/PS1 dE9 double transgenic mouse model assessed as time spent in platform quadrant at 10 mg/kg, po administered 3 times/week for 1 month and measured after 40 to 45 days of treatment by Morris water maze test (reference value: 11.06 +/- 1.53 %); format: functional; settings: time 27 day
[7] = system: Mus musculus; test: Anti-alzheimer activity against APP/PS1 dE9 double transgenic mouse model assessed as spontaneous alteration at 30 mg/kg, po administered 3 times/week for 1 month and measured after 27 days of treatment by Y-maze test (reference value: 46.70 +/- 3.32%); format: functional; settings: time 1 months, 730 h
[8] = Toxicity in APP/PS1 mouse assessed as dead animal at 10 mg/kg, po treated 3 times/week for 1 month; format: organism-based; settings: in vivo, 730 h, time 1 months
[9] = Half life in Sprague-Dawley rat at 3 mg/kg, po measured upto 24 hrs by UPLC analysis; format: ADME, organism-based; settings: in vivo
[10] = Tmax in Sprague-Dawley rat at 3 mg/kg, po measured upto 24 hrs by UPLC analysis; format: ADME, organism-based; settings: in vivo
[11] = AUC in Sprague-Dawley rat at 3 mg/kg, po measured upto 24 hrs by UPLC analysis; format: ADME, organism-based; set-up: time < 24 hrs, dose 3 mg/kg, route po; settings: in vivo
[12] = system: Cortical neurone; test: Neuroprotective activity against Amyloid beta (1 to 42)-induced toxicity in rat cortical neuron assessed as cell viability at 20 uM measured after 24 hrs by MTT assay; format: functional; settings: read-out: Activity
[13] = molecular target: Mitogen-activated protein kinase 10 (Homo sapiens, UniProt P53779); test: Inhibition of human JNK3 incubated for 40 mins in presence of ATP and [gamma33P-ATP] by scintillation counting method; settings: read-out: IC50
[14] = molecular target: Mitogen-activated protein kinase 8 (Homo sapiens, UniProt P45983); test: Inhibition of human JNK1 incubated for 40 mins in presence of ATP and [gamma33P-ATP] by scintillation counting method
[15] = molecular target: T1, Dual specificity mitogen-activated protein kinase kinase 6 (Homo sapiens, UniProt P52564); test: Inhibition of MKK6 (unknown origin) assessed as incorporation of 33P-ATP
T1 sequence (P52564 whole entry): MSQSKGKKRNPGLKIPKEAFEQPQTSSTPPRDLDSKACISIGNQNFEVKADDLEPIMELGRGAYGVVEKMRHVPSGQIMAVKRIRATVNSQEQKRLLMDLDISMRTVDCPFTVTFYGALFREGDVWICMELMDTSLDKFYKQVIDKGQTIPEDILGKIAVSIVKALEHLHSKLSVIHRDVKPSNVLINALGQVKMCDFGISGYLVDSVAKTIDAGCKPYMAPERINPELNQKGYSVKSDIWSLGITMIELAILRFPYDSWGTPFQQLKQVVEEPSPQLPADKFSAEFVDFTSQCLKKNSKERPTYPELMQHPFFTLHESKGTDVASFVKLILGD

[16] = molecular target: T2, MAPK/MAK/MRK overlapping kinase (Homo sapiens, UniProt Q9UQ07); test: Inhibition of MOK (unknown origin) assessed as incorporation of 33P-ATP
T2 sequence (Q9UQ07 whole entry): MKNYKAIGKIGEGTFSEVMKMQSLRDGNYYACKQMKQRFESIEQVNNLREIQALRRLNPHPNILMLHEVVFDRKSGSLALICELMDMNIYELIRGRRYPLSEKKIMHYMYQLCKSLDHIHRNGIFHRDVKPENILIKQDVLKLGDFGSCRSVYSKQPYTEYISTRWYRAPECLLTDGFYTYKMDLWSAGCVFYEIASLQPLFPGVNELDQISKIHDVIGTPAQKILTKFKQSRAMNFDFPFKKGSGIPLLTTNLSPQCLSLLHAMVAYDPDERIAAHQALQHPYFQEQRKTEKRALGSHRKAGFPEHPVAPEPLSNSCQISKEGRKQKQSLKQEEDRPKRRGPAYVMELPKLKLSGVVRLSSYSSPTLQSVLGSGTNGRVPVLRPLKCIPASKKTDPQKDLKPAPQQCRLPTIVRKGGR

[17] = Inhibition of human SAPK2a T106 mutant assessed as incorporation of 33P-ATP
[18] = molecular target: Mitogen-activated protein kinase 11 (Homo sapiens, UniProt Q15759); test: Inhibition of human SAPK2b assessed as incorporation of 33P-ATP
[19] = molecular target: Mitogen-activated protein kinase 9 (Homo sapiens, UniProt P45984); test: Inhibition of human JNK2alpha1 assessed as incorporation of 33P-ATP
[20] = system: Cortical neurone; test: Neuroprotective activity against Amyloid beta (1 to 42)-induced toxicity in rat cortical neuron assessed as cell viability measured after 24 to 48 hrs by MTT assay; format: functional, cell-based; settings: time 24-48 hrs

Mitogen-activated protein kinase 9, sequence (P45984 whole entry): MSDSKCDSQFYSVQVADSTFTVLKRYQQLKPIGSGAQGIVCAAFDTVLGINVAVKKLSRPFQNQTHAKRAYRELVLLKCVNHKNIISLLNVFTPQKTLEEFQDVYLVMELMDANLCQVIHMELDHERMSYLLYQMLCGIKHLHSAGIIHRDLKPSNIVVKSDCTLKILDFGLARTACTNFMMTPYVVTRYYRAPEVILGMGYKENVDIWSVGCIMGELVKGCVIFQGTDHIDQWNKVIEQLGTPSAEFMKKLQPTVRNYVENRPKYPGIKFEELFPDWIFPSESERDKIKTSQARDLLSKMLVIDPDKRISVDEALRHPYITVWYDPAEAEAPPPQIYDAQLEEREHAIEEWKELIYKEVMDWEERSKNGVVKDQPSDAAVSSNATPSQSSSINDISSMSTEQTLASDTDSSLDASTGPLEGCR
Mitogen-activated protein kinase 10, sequence (P53779 whole entry): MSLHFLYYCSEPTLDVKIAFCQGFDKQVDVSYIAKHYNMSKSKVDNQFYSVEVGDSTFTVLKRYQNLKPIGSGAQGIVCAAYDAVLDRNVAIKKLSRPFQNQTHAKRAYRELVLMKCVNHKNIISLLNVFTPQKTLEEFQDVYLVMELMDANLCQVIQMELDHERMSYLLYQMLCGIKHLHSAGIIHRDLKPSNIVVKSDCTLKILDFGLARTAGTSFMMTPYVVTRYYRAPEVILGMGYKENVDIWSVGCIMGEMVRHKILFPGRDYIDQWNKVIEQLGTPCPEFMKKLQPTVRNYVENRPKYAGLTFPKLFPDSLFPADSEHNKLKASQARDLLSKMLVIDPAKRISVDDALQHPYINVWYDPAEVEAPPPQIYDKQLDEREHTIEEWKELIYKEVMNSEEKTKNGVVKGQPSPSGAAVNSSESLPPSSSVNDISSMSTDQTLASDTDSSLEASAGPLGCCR
Mitogen-activated protein kinase 8, sequence (P45983 whole entry): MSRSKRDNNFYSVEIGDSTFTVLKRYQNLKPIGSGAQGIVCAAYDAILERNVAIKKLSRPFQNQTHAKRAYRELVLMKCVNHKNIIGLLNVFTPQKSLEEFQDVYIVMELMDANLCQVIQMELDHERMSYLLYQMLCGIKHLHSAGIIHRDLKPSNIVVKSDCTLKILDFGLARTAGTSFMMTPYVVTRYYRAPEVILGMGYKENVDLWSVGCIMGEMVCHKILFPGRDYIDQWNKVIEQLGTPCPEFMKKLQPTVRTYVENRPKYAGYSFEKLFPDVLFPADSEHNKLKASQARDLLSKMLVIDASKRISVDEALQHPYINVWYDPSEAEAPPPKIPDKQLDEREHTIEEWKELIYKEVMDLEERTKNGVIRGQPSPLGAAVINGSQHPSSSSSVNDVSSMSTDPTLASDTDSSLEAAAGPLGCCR
Mitogen-activated protein kinase 11, sequence (Q15759 whole entry): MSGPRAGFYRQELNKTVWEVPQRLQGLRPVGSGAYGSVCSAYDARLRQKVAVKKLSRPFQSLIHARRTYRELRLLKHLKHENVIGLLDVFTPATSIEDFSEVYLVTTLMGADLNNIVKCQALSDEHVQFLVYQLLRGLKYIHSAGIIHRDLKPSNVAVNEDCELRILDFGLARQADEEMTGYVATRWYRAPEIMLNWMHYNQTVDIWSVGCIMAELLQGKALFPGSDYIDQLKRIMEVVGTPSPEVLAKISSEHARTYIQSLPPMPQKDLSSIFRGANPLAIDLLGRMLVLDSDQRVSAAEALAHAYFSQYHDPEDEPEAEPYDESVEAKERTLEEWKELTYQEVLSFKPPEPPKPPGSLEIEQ
Mitogen-activated protein kinase 10 (Rattus norvegicus), sequence (P49187 whole entry): as the sequence (P53779 whole entry) above, with Q27H, Y32S, I33V, A34V counted along it

## N#CCc1cnc(-c2ccc3ccccc3c2)n1-c1ccnc(N[C@H]2CCCN(C(=O)C3CC3)C2)n1
[1]
  Activity: Dose-Dependent Effect
[2]
  Papp B→A at 1 h, 10 µM: 26.4 ×10⁻⁶ cm/s
[3]
  Papp A→B at 1 h, 10 µM: 13.7 ×10⁻⁶ cm/s
[4]
  Time: 13.24 s
[5]
  Activity: Non-Toxic
[6]
  Time: 10.53 s
[7]
  Activity: 56.12%
[8]
  Activity: Non-Toxic
[9]
  half-life: 20.4 min
[10]
  Tmax: 37.8 min
[11]
  AUC at 24 h: 338 ng·h/mL
[12]
  viability at 20 µM: 72.6%
[13]
  IC50: 1 nM
[14]
  IC50: 298 nM
[15]
  IC50: 15100 nM
[16]
  IC50: 1180 nM
[17]
  IC50: 1190 nM
[18]
  IC50: 280 nM
[19]
  IC50: 340 nM
[20]
  Activity: Dose-Dependent Effect
